# Test system: Cardiac Arrhythmia in Dogs
# Test: Ouabain induced arrhythmias: correction of existing ventricular arrhythmia by i.v. infusion
# Format: in vivo, adult mongrel dogs
# Details: Canis lupus familiaris, iv, 0.5 h; Ouabain-Induced arrhythmia model; dogs under barbiturate anaesthesia; infusion into a femoral vein at 1 mg/kg/min; active if reversion to sinus rhythm maintained for at least 30 minutes; tested as difumarate hemihydrate salt, dose computed as free base; read-out: Correcting Dose mg/kg, i.v. (computed as free base)
# Description: Correction of existing cardiac arrhythmias of ventricular origin is carried out on (1) adult mongrel dogs which are under barbiturate anaesthesia during the test. A Grass Model 7 Polygraph was used for recording femoral arterial blood pressure (Statham P23AC Transducer) and the electro- cardiagram (Grass 7P4 Preamplifier). Ouabain was given intravenously in an initial dose of 40 µg/kg and in a second dose of 20 µg/kg 30 minutes after the first dose and in subsequent doses of 10 µg/kg which were repeated at 15 min. intervals as required for producing cardiac arrhythmias that persisted for at least 15 minutes. When the arrhythmias were established, the test compounds were administered by infusion (Harvard Model 942 Infusion Pump) into a femoral vein at a rate of 1 mg/kg/min. Concentration of compound was adjusted according to the weight of the dog to allow a volume infusion of 1 ml/min. The compound was considered to be active as antiarrhythmic agent if reversion to sinus rhythm occurred which was maintained for at least 30 minutes.
# Data obtained for one preferred compound, namely 1-[2-(dimethylamino)ethyl]α,α-diphenyl-3-pyrrolidine- acetamide as represented by its defumarate hemihydrate salt are shown in Table 1.
compound,measurement,value
"CN(C)CCN1CCC(C(C(N)=O)(c2ccccc2)c2ccccc2)C1 (stereo not drawn) [Example 5, 1-2-(Dimethylamino)ethyl]-α,α-diphenyl-3-pyrrolidine-acetamide difumarate, hemihydrate]",minimal effective dose,5 mg/kg

# From patent publication EP0178946A2, “1-(Aminoalkyl)-alpha, alpha-diaryl pyrrolidine-piperidine- and homopiperidine- acetamides and acetonitriles” (A.H. ROBINS COMPANY, INCORPORATED, priority 1984, dated 1986)
